In patent publication US8691849B2, “3-azabicyclo[3.1.0]hexyl derivatives as modulators of metabotropic glutamate receptors” (Janssen Pharmaceuticals, Inc., priority 2008, dated 2014):

Key:
human mGluR2 receptor = molecular target: T1, human mGluR2 receptor (Homo sapiens, UniProt Q14416); assay: [35S]GTPγS binding assay (PAM assay), membranes from CHO cells transfected with human mGluR2; assay type: biochemical; conditions: in presence of glutamate at predetermined EC25 concentration; averages of duplicate values of 11-concentration response curves; read-out: GTPγS - hR2 PAM pEC50 (converted)
T1 construct: expressed in transfected cells; host or cells: CHO cells
Source text: The compounds provided in the present invention are positive allosteric modulators of mGluR2. These compounds appear to potentiate glutamate responses by binding to an allosteric site other than the glutamate binding site. The response of mGluR2 to a concentration of glutamate is increased when compounds of Formula (I) are present. Compounds of Formula (I) are expected to have their effect substantially at mGluR2 by virtue of their ability to enhance the function of the receptor. The behaviour of positive allosteric modulators tested at mGluR2 using the [^35S]GTPγS binding assay method described below and which is suitable for the identification of such compounds, and more particularly the compounds according to Formula (I), are shown in Table 2.
The [^35S]GTPγS binding assay is a functional membrane-based assay used to study G-protein coupled receptor (GPCR) function whereby incorporation of a non-hydrolysable form of GTP, [^35S]GTPγS (guanosine 5′-triphosphate, labelled with […] ^35S), is measured. The G-protein α subunit catalyzes the exchange of guanosine 5′-diphosphate (GDP) by guanosine triphosphate (GTP) and on activation of the GPCR by an agonist, [^35S]GTPγS, becomes incorporated and cannot be cleaved to continue the exchange cycle (Harper (1998) Current Protocols in Pharmacology 2.6.1-10, John Wiley & Sons, Inc.). […] Here we describe the use of the [^35S]GTPγS binding assay using membranes from cells transfected with the human mGluR2 receptor and adapted from Schaffhauser et al ((2003) Molecular Pharmacology 4:798-810) for the detection of the positive allosteric modulation (PAM) properties of the compounds of this invention.
CHO-cells were cultured to pre-confluence and stimulated with 5 mM butyrate for 24 hours, prior to washing in PBS, and then collected by scraping in homogenisation buffer (50 mM Tris-HCl buffer, pH 7.4, 4° C.). […] Protein concentration was determined by the Bradford method (Bio-Rad, USA) with bovine serum albumin as standard.
Measurement of mGluR2 positive allosteric modulatory activity of test compounds in membranes containing human mGluR2 was performed using frozen membranes that were thawed and briefly homogenized prior to pre-incubation in 96-well microplates (15 μg/assay well, 30 minutes, 30° C.) in assay buffer (50 mM HEPES pH 7.4, 100 mM NaCl, 3 mM MgCl2, 50 μM GDP, 10 μg/ml saponin,) with increasing concentrations of positive allosteric modulator (from 0.3 nM to 50 μM) and either a minimal pre-determined concentration of glutamate (PAM assay), or no added glutamate. […] Filters were then air-dried, and 40 μl of liquid scintillation cocktail (Microscint-O) was added to each well, and membrane-bound [^35S]GTPγS was measured in a 96-well scintillation plate reader (Top-Count, Perkin-Elmer, USA). […]

T1 sequence (Q14416 19-872): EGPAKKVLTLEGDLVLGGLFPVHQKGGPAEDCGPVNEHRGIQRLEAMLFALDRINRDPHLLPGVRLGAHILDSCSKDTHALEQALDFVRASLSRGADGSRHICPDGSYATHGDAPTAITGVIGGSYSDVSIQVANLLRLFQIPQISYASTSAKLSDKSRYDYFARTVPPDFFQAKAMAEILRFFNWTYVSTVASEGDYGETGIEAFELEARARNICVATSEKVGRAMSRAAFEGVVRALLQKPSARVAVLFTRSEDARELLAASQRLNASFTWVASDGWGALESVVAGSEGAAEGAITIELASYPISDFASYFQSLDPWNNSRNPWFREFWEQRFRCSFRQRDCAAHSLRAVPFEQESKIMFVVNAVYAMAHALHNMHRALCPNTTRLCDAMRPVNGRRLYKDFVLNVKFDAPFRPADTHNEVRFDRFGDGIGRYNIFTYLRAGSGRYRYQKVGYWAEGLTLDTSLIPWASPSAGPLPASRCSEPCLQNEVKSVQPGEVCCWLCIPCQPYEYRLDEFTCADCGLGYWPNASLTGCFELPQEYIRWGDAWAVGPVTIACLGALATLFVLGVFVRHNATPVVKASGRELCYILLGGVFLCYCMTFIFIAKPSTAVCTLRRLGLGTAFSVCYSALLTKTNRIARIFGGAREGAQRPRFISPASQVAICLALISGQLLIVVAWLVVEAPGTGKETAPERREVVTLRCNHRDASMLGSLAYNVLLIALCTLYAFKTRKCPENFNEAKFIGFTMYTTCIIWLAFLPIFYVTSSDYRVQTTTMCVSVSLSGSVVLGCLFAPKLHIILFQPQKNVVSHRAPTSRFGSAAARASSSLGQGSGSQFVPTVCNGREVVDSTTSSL

melting point [°C] | EC50 (human mGluR2 receptor) [µM] | Compound
172.2 | 0.275 | O=c1c(Cl)c(N2CC3[C@H](C2)[C@H]3c2ccccc2)ccn1CC1CC1 (stereo partly drawn) [Compound E1, (2aα,3α,3aα)-3-Chloro-1-cyclopropylmethyl-4-(6-phenyl-3-aza-bicyclo[3.1.0]hex-3-yl)-1H-pyridin-2-one]
– | 0.123 | CCCCn1ccc(N2C[C@@H]3[C@@H](COc4cc(Cl)ccc4Cl)[C@@H]3C2)c(Cl)c1=O [Compound E2]
– | 0.126 | CCCCn1ccc(N2C[C@@H]3[C@H](COc4cc(Cl)ccc4Cl)[C@@H]3C2)c(Cl)c1=O [Compound E3]
185.9 | 0.0891 | CCCCn1ccc(N2C[C@@H]3[C@H](C2)[C@H]3c2ccccc2)c(Cl)c1=O [Compound E4, (2aα,3α,3aα)-1-Butyl-3-chloro-4-(6-phenyl-3-aza-bicyclo[3.1.0]hex-3-yl)-1H-pyridin-2-one]
